Data on 16 compounds can be found in patent US9914731B2, “Pyrazolo[1,5-a]pyridine derivatives and methods of their use” (Ignyta, Inc., priority 2013, dated 2018).

Test [1] concerns the target recombinant human baculovirus-expressed AXL (Homo sapiens (Human), UniProt P30530). Kind of test: AXL kinase assay (HTRF KinEASE). The format is biochemical. The following applies: average of two or more determinations. On the technique in general: TR-FRET usually uses a lanthanide donor and a delayed reading to cut background.
In test [2] the target is recombinant human baculovirus-expressed cMET (Homo sapiens (Human), UniProt P08581). The test is described as follows: c-MET kinase assay (HTRF KinEASE). Particulars: average of two or more determinations; read-out: c-MET IC50. The class given is biochemical.

SMILES strings stand for the structures.

The IC50 is the concentration at which inhibition is half-maximal. In the case of `Cn1cnc(-c2cc(Oc3ccc(NC(=O)c4cn(CCOCc5ccccc5)c(=O)n(-c5ccc(F)cc5)c4=O)cc3F)c3ccnn3c2)c1` [Example 96, 1-(2-Benzyloxy-ethyl)-3-(4-fluoro-phenyl-)-2,4-dioxo-1,2,3,4-tetrahydro-pyrimidine-5-carboxylic acid{3-fluoro-4-[6-(1-methyl-1H-imidazol-4-yl)-pyrazolo[1,5-a]pyridin-4-yloxy]-phenyl}-amide], the IC50 was below 10 nM in test [1] and 10 to 100 nM in test [2].
The like results for `CCn1cc(C(=O)Nc2ccc(Oc3cc(-c4cscn4)cn4nccc34)c(F)c2)c(=O)n(-c2ccc(F)cc2)c1=O` [Example 101, 1-Ethyl-3-(4-fluoro-phenyl)-2,4-dioxo-1,2,3,4-tetrahydro-pyrimidine-5-carboxylic acid[3-fluoro-4-(6-thiazol-4-yl-pyrazolo[1,5-a]pyridin-4-yloxy)-phenyl]-amide] were, in that order, below 10 nM and below 10 nM.
The like results for `O=C(Nc1ccc(Oc2cc(-c3cscn3)cn3nccc23)c(F)c1)c1cccn(-c2ccc(F)cc2)c1=O` [Example 102, 1-(4-Fluoro-phenyl)-2-oxo-1,2-dihydro-pyridine-3-carboxylic acid[3-fluoro-4-(6-thiazol-4-yl-pyrazolo[1,5-a]pyridin-4-yloxy)-phenyl]-amide] were, in that order, below 10 nM and below 10 nM.
`CC(C)n1cc(C(=O)Nc2ccc(Oc3cc(-c4cncs4)cn4nccc34)c(F)c2)c(=O)n(-c2ccc(F)cc2)c1=O` [Example 103, 3-(4-Fluoro-phenyl)-1-isopropyl-2,4-dioxo-1,2,3,4-tetrahydro-pyrimidine-5-carboxylic acid[3-fluoro-4-(6-thiazol-5-yl-pyrazolo[1,5-a]pyridin-4-yloxy)-phenyl]-amide]: the IC50 in test [1] and in test [2] was below 10 nM in each case.
`CCn1cc(C(=O)Nc2ccc(Oc3cc(-c4cncs4)cn4nccc34)c(F)c2)c(=O)n(-c2ccc(F)cc2)c1=O` [Example 104, 1-Ethyl-3-(4-fluoro-phenyl)-2,4-dioxo-1,2,3,4-tetrahydro-pyrimidine-5-carboxylic acid[3-fluoro-4-(6-thiazol-5-yl-pyrazolo[1,5-a]pyridin-4-yloxy)-phenyl]-amide]: the IC50 in test [1] and in test [2] was below 10 nM each time.
Regarding `Cn1cnc(-c2cc(Oc3ccc(NC(=O)c4c[nH]c(=O)n(-c5ccc(F)cc5)c4=O)cc3F)c3ccnn3c2)c1` [Example 107, 3-(4-Fluoro-phenyl)-2,4-dioxo-1,2,3,4-tetrahydro-pyrimidine-5-carboxylic acid{3-fluoro-4-[6-(1-methyl-1H-imidazol-4-yl)-pyrazolo[1,5-a]pyridin-4-yloxy]-phenyl}-amide], the half-inhibitory concentration (IC50) in test [1] and in test [2] was below 10 nM throughout.
Regarding `Cc1cc(NC(=O)c2cn(C(C)C)c(=O)n(-c3ccc(F)cc3)c2=O)ccc1Oc1cc(-c2cn(C)cn2)cn2nccc12` [Example 110, 3-(4-Fluoro-phenyl)-1-isopropyl-2,4-dioxo-1,2,3,4-tetrahydro-pyrimidine-5-carboxylic acid{3-methyl-4-[6-(1-methyl-1H-imidazol-4-yl)-pyrazolo[1,5-a]pyridin-4-yloxy]-phenyl}-amide], the half-maximal inhibitory concentration (IC50) was below 10 nM in test [1] and 10 to 100 nM in test [2].
The like results for `CCn1cc(C(=O)Nc2ccc(Oc3cc(-c4cn(C)cn4)cn4nccc34)cc2)c(=O)n(-c2ccc(F)cc2)c1=O` [Example 113, 1-Ethyl-3-(4-fluoro-phenyl)-2,4-dioxo-1,2,3,4-tetrahydro-pyrimidine-5-carboxylic acid {4-[6-(1-methyl-1H-imidazol-4-yl)-pyrazolo[1,5-a]pyridin-4-yloxy]-phenyl}-amide] were, in that order, below 10 nM and below 10 nM.
As for `CC(C)n1cc(C(=O)Nc2ccc(Oc3cc(-c4cn(C)cn4)cn4nccc34)cc2)c(=O)n(-c2ccc(F)cc2)c1=O` [Example 114, 3-(4-Fluoro-phenyl)-1-isopropyl-2,4-dioxo-1,2,3,4-tetrahydro-pyrimidine-5-carboxylic acid{4-[6-(1-methyl-1H-imidazol-4-yl)-pyrazolo[1,5-a]pyridin-4-yloxy]-phenyl}-amide], the IC50 in test [1] and in test [2] was below 10 nM each time.
For the compound `CC(C)n1cc(C(=O)Nc2ccc(Oc3cc(-c4cn(C)cn4)cn4nccc34)cn2)c(=O)n(-c2ccc(F)cc2)c1=O` [Example 124, 3-(4-Fluoro-phenyl)-1-isopropyl-2,4-dioxo-1,2,3,4-tetrahydro-pyrimidine-5-carboxylic acid {5-[6-(1-methyl-1H-imidazol-4-yl)-pyrazolo[1,5-a]pyridin-4-yloxy]-pyridin-2-yl}-amide], the concentration for half-maximal inhibition (IC50) in test [1] and in test [2] was below 10 nM each time.
For `CCn1nc(C(=O)Nc2ccc(Oc3cc(-c4cn(C)cn4)cn4nccc34)c(F)c2)c(=O)n(-c2ccc(F)cc2)c1=O` [Example 128, 2-Ethyl-4-(4-fluoro-phenyl)-3,5-dioxo-2,3,4,5-tetrahydro-1,2,4-triazine-6-carboxylic acid {3-fluoro-4-[6-(1-methyl-1H-imidazol-4-yl)-pyrazolo[1,5-a]pyridin-4-yloxy]-phenyl}-amide], the 50% inhibitory concentration (IC50) in test [1] and in test [2] was below 10 nM each time.
As for `CC(C)n1nc(C(=O)Nc2ccc(Oc3cc(-c4cn(C)cn4)cn4nccc34)c(F)c2)c(=O)n(-c2ccc(F)cc2)c1=O` [Example 129, 4-(4-Fluoro-phenyl)-2-isopropyl-3,5-dioxo-2,3,4,5-tetrahydro-1,2,4-triazine-6-carboxylic acid{3-fluoro-4-[6-(1-methyl-1H-imidazol-4-yl)-pyrazolo[1,5-a]pyridin-4-yloxy]-phenyl}-amide], the IC50 in test [1] and in test [2] was below 10 nM each time.
For `CCn1cc(C(=O)Nc2ccc(Oc3cc(NC(C)=O)cn4nccc34)c(F)c2)c(=O)n(-c2ccc(F)cc2)c1=O` [Example 142, 1-Ethyl-3-(4-fluoro-phenyl)-2,4-dioxo-1,2,3,4-tetrahydro-pyrimidine-5-carboxylic acid[4-(6-acetylamino-pyrazolo[1,5-a]pyridin-4-yloxy)-3-fluoro-phenyl]-amide], the IC50 in test [1] and in test [2] was below 10 nM each time.
For the compound `CC(C)n1cc(C(=O)Nc2ccc(Oc3cc(NC(=O)N(C)C)cn4nccc34)c(F)c2)c(=O)n(-c2ccc(F)cc2)c1=O` [Example 147, 3-(4-Fluoro-phenyl)-1-isopropyl-2,4-dioxo-1,2,3,4-tetrahydro-pyrimidine-5-carboxylic acid{4-[6-(3,3-dimethyl-ureido)-pyrazolo[1,5-a]pyridin-4-yloxy]-3-fluoro-phenyl}-amide], the IC50 in test [1] and in test [2] was below 10 nM each time.
Regarding `CCn1cc(C(=O)Nc2ccc(Oc3cc(NC(=O)OC)cn4nccc34)c(F)c2)c(=O)n(-c2ccc(F)cc2)c1=O` [Example 148, [4-(4-{[1-Ethyl-3-(4-fluoro-phenyl)-2,4-dioxo-1,2,3,4-tetrahydro-pyrimidine-5-carbonyl]-amino}-2-fluoro-phenoxy)-pyrazolo[1,5-a]pyridin-6-yl]-carbamic acid methyl ester], the half-maximal inhibitory concentration (IC50) in test [1] was below 10 nM; in test [2], 10 to 100 nM.
For `COC(=O)Nc1cc(Oc2ccc(NC(=O)c3cn(C(C)C)c(=O)n(-c4ccc(F)cc4)c3=O)cc2F)c2ccnn2c1` [Example 149, [4-(2-Fluoro-4-{[3-(4-fluoro-phenyl)-1-isopropyl-2,4-dioxo-1,2,3,4-tetrahydro-pyrimidine-5-carbonyl]-amino}-phenoxy)-pyrazolo[1,5-a]pyridin-6-yl]-carbamic acid methyl ester] the same measures were below 10 nM and 10 to 100 nM.
